In a flash point compilation (Sun et al. 2020) one finds flash point data, which are given here for 32 compounds.

Structures are written as SMILES.

On to `Cc1ccc(C)cc1` [1,4-xylene], for which the flash point was 27.00 °C.
To `O=C=NCCCCCCN=C=O` [1,6-diisocyanatohexane] belongs 140.00 °C; to `CC12CCC(CC1=O)C2(C)C` (configuration not stated) [1,7,7-trimethylbicyclo[2.2.1]heptan-2-one], 66.00 °C; to `CCCCOCCOCC(C)O` (configuration not stated) [1-(2-butoxyethoxy)propan-2-ol], 121.00 °C.
To `CC(O)CNCC(C)O` (configuration not stated) [1-(2-hydroxypropylamino)propan-2-ol] belongs 126.00 °C; to `CCC(OCCCOC)OC(C)=O` (configuration not stated) [1-(3-methoxypropoxy)propyl acetate], 86.00 °C; to `COc1ccc(C(C)=O)cc1` [1-(4-methoxyphenyl)ethanone], 138.00 °C.
For `Cc1ccc(CBr)cc1` [1-(bromomethyl)-4-methylbenzene], the flash point turned out to be 98.00 °C.
To `C=CCOC(Cn1ccnc1)c1ccc(Cl)cc1Cl` (configuration not stated) [1-[2-(2,4-dichlorophenyl)-2-prop-2-enoxyethyl]imidazole] belongs 192.00 °C; to `CC(O)COC(C)(C)C` (configuration not stated) [1-[(2-methylpropan-2-yl)oxy]propan-2-ol], 44.00 °C.
To `CC(O)CN(CC(C)O)CC(C)O` (configuration not stated) [1-[bis(2-hydroxypropyl)amino]propan-2-ol] belongs 160.00 °C; to `O=P(N1CC1)(N1CC1)N1CC1` [1-[bis(aziridin-1-yl)phosphoryl]aziridine], 163.00 °C; to `CCCCOP(=O)(CCCC)OCCCC` [1-[butoxy(butyl)phosphoryl]oxybutane], 154.00 °C.
To `CC(O)CN` (configuration not stated) [1-aminopropan-2-ol] belongs 77.00 °C; to `Cc1ccccc1Br` [1-bromo-2-methylbenzene], 79.00 °C.
With `Cc1ccc(Br)cc1` [1-bromo-4-methylbenzene], the flash point was 85.00 °C.
To `Brc1ccc(-c2ccccc2)cc1` [1-bromo-4-phenylbenzene] belongs 143.00 °C; to `CC(O)CBr` (configuration not stated) [1-bromopropan-2-ol], 54.00 °C; to `CC(CCl)OC(C)CCl` (configuration not stated) [1-chloro-2-(1-chloropropan-2-yloxy)propane], 85.00 °C.
To `ClCCOCCCl` [1-chloro-2-(2-chloroethoxy)ethane] belongs 55.00 °C; to `ClCCOCOCCCl` [1-chloro-2-(2-chloroethoxymethoxy)ethane], 110.00 °C; to `C=COCCCl` [1-chloro-2-ethenoxyethane], 16.00 °C.
To `Cc1ccccc1Cl` [1-chloro-2-methylbenzene] belongs 52.00 °C; to `CC(C)=CCl` [1-chloro-2-methylprop-1-ene], -1.00 °C.
`O=[N+]([O-])c1ccccc1Cl` [1-chloro-2-nitrobenzene] returned a flash point of 127.00 °C.
To `FC(F)(F)c1cccc(Cl)c1` [1-chloro-3-(trifluoromethyl)benzene] belongs 47.00 °C.
Compound `Cc1cccc(Cl)c1` [1-chloro-3-methylbenzene] came in with a flash point of 52.00 °C.
To `O=[N+]([O-])c1cccc(Cl)c1` [1-chloro-3-nitrobenzene] belongs 127.00 °C; to `FC(F)(F)c1ccc(Cl)cc1` [1-chloro-4-(trifluoromethyl)benzene], 47.00 °C; to `CCC(C(c1ccc(Cl)cc1)c1ccc(Cl)cc1)[N+](=O)[O-]` (configuration not stated) [1-chloro-4-[1-(4-chlorophenyl)-2-nitrobutyl]benzene], 150.00 °C.
To `O=C=Nc1ccc(Cl)cc1` [1-chloro-4-isocyanatobenzene] belongs 110.00 °C.
In turn, `O=[N+]([O-])c1ccc(Cl)cc1` [1-chloro-4-nitrobenzene] had a flash point of 110.00 °C.
